The values below come from publication PMC8976278, “Hesperidin identified from Citrus extracts potently inhibits HCV genotype 3a NS3 protease” (BMC Complementary Medicine and Therapies, 2022).

Values after ≈ are worked out from the molar mass of the structure shown. Where two headings read alike, the source gives them in different places.

For experiment [1], the target named is NS3-NS4A protease of HCV genotype-3a (Hepatitis C virus genotype 3a, UniProt Q81258). Kind of experiment: FRET assay of NS3-NS4A protease activity with depsipeptide substrate. Set-up: Activity, Slope trial 1st / Activity, Slope trial 2nd / Activity, Slope trial 3rd: unit not given here. In kind it is biochemical. Here is the method: For measuring the protease activity, a FRET assay was performed using a depsipeptide substrate, Ac-Asp-Glu-Asp-(EDANS)-Glu-Glu-Abu-ψ-[COO]-Ala-Ser-Lys(DABCYL)-NH2 (AnaSpec,US). The fluorescence signal generated upon cleavage of the depsipeptide substrate by the NS3 protease domain was continuously recorded using excitation and emission wavelengths of 355 nm and 510 nm, respectively, and a fluorescence microplate reader (TECAN, US). In the case of the full-length NS3 protease, the reaction buffer (50 mM HEPES, pH 7.5, 0.4% Triton X-100, 10 mM DTT (Thermo Fisher Scientific), 3% DMSO (Thermo Fisher Scientific), and 40% glycerol) was pre-incubated (at 30 °C for 10 min) with 25 µM of a synthetic peptide, […] (purchased from LifeTein LLC, US), representing the core of the NS4A cofactor required for the catalytic activity. For the FRET assay, 1 nM of the full-length NS3 protease was used. In the case of NS3-NS4A, the protein (0.5 nM) was incubated in the reaction buffer at 30 °C for 10 min (without the synthetic peptide). The reaction was initiated by the addition of the substrate (10 µL) in a two-fold serial dilution up to a concentration of 2 µM. Reaction wells without the substrate were used as negative controls. For correction of the inner filter effect, a previously described procedure was followed. Kinetic parameters (such as kcat, Km, and kcat/Km) were calculated using the Michaelis–Menten equation. Data were fitted to the equation by non-linear regression using the GraphPad Prism® software (version 7.04, GraphPad Prism®, Inc., USA).
For validation of the FRET assay, commercially available inhibitors (asuanaprevir, ciluprevir, danoprevir, and telaprevir (purchased from AdooQ® Bioscience, US) were used to inhibit the activity of the target enzyme (NS3-NS4A protease of HCV genotype-3a), as described previously. Briefly, 1 µM of the depsipeptide substrate was added to the protein, pre-incubated with a given inhibitor, and fluorescence measurements were recorded for 20, 30, or 60 min using 355 nm and 510 nm as excitation and emission wavelengths, respectively. The IC50 value, representing the half-maximal inhibitory concentration, of each commercial inhibitor was calculated using the GraphPad Prism® software (version 7.04, GraphPad Prism®, Inc., USA). The experiment was performed in triplicates, and the average value obtained was considered as the IC50 value.
Reaction mixtures (300 µL) were prepared in the assay buffer (50 mM HEPES, pH 7.5, 0.4% Triton X-100, 10 mM DTT, and 40% glycerol). For initial screening, 3.33 mg of the plant extract was dissolved in 1 mL DMSO, and was transferred to the reaction buffer such that the final concentration of DMSO was 3%. The reaction was initiated by adding 0.5 nM NS3-NS4A protease, and the released RET S1 FRET substrate was monitored using a fluorescence microplate reader (TECAN). Reaction mixtures (also containing 3% DMSO) without any plant extract were used for recording blank measurements. The background fluorescence contributed by the plant extract was also recorded. For calculation of the calibration curve, spiking with known amounts (0.25 µM, 0.5 µM, 1 µM, and 2 µM) of the free FRET substrate (RET S1) was made while keeping the reaction mixture at the same volume, containing all the constituents (the plant extract, the assay buffer as well as the enzyme). Slope of the curve was correlated with that obtained from free FRET substrate concentrations without any plant extract as well as the substrate. Initial reaction rates were calculated, and the percentage (%) enzyme inhibition was calculated using the equation: 100 x [a-b/a] where “a” refers to the fluorescence value generated by the reaction mixture only (without the plant extract) and “b” is the solution fluorescence in the presence of the plant extract. […]

The test system of the next experiment is HCV NS3 protease. Set-up: method as in earlier work. The following applies: ref [49], [50]; Table S3 ref [1], [2]; cited from earlier work.
For experiment [2], the target named is NS3 protease domain of HCV genotype 3a fused to the cognate NS4A cofactor (NS3-NS4A) (hepatitis C virus genotype 3a).
Where [3] appears, read: FRET assay validation, 1 µM depsipeptide substrate, triplicates, read-out: IC50 value (commercial inhibitors) (converted).

NS3-NS4A protease of HCV genotype-3a, sequence (Q81258 1033-1213, other chains not shown): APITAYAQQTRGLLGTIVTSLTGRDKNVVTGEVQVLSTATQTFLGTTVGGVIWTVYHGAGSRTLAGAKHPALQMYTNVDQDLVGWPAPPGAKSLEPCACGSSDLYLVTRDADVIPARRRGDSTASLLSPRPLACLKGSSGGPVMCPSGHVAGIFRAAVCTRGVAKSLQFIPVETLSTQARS

Broadly, the IC50 is the point on the concentration scale where inhibition reaches its midpoint. Regarding `O=c1oc2c(O)c(O)cc3c(=O)oc4c(O)c(O)cc1c4c23` [Ellagic acid], in experiment [1] (commercially obtained pure compound, hesperidin 1230 to 1.67 µg/mL, read-out: IC50 value (pure natural compound) (converted)), the IC50 is 98000 nM.

For `COc1ccc2c(O[C@@H]3C[C@H]4C(=O)N[C@]5(C(=O)O)C[C@H]5/C=C\CCCCC[C@H](NC(=O)OC5CCCC5)C(=O)N4C3)cc(-c3csc(NC(C)C)n3)nc2c1` [Ciluprevir], the IC50 in experiment [1] (setting [3]) is 53.2 nM.

Turning to `CCC[C@H](NC(=O)[C@@H]1[C@H]2CCC[C@H]2CN1C(=O)[C@@H](NC(=O)[C@@H](NC(=O)c1cnccn1)C1CCCCC1)C(C)(C)C)C(=O)C(=O)NC1CC1` [Telaprevir], the IC50 in experiment [1] (setting [3]) is 69.9 nM. Further, the “Activity, Slope trial 1st” value came out at 4.176 in experiment [1] (inhibitor conc. 1.3717 nM); 4.77 in experiment [1] (inhibitor conc. 4.1152 nM); 3.041 in experiment [1] (inhibitor conc. 12.3456 nM); 3.796 in experiment [1] (inhibitor conc. 37.037 nM); 1.774 in experiment [1] (inhibitor conc. 111.1111 nM); 0.5776 in experiment [1] (inhibitor conc. 333.3333 nM). Further, the “Activity, Slope trial 1st” value in experiment [1] (inhibitor conc. 1000 nM) worked out at 1.246. Besides, the “Activity, Slope trial 2nd” value in experiment [1] (inhibitor conc. 1.3717 nM) was 2.087; in experiment [1] (inhibitor conc. 4.1152 nM) it was 3.604; in experiment [1] (inhibitor conc. 12.3456 nM) it was 1.613; in experiment [1] (inhibitor conc. 37.037 nM), 1.828; in experiment [1] (inhibitor conc. 111.1111 nM), 1.116; in experiment [1] (inhibitor conc. 333.3333 nM) it was 0.3406. Besides, the “Activity, Slope trial 2nd” value in experiment [1] (inhibitor conc. 1000 nM) is on record as 0.081. Further, the “Activity, Slope trial 3rd” value worked out at 2.395 in experiment [1] (inhibitor conc. 1.3717 nM); 1.309 in experiment [1] (inhibitor conc. 4.1152 nM); 2.131 in experiment [1] (inhibitor conc. 12.3456 nM); 1.004 in experiment [1] (inhibitor conc. 37.037 nM); 0.627 in experiment [1] (inhibitor conc. 111.1111 nM); 0.163 in experiment [1] (inhibitor conc. 333.3333 nM). Moreover, the “Activity, Slope trial 3rd” value in experiment [1] (inhibitor conc. 1000 nM) is 0. Further, the “Average Slope” value was determined as 2.88 in experiment [1] (inhibitor conc. 1.3717 nM); 3.22 in experiment [1] (inhibitor conc. 4.1152 nM); 2.26 in experiment [1] (inhibitor conc. 12.3456 nM); 2.20 in experiment [1] (inhibitor conc. 37.037 nM); 1.17 in experiment [1] (inhibitor conc. 111.1111 nM); 0.36 in experiment [1] (inhibitor conc. 333.3333 nM). Moreover, in experiment [1] (inhibitor conc. 1000 nM), the “Average Slope” value came out at 0.44. In addition, the “IC50 value [reported in the literature]” value with HCV NS3 protease was 0.0387 µg/mL (≈ 0.0569 µM).

For the compound `C=C[C@@H]1C[C@]1(NC(=O)[C@@H]1C[C@@H](Oc2ncc(OC)c3ccc(Cl)cc23)CN1C(=O)[C@@H](NC(=O)OC(C)(C)C)C(C)(C)C)C(=O)NS(=O)(=O)C1CC1` [Asunaprevir], in experiment [1] (setting [3]), the IC50 was 68.3 nM.

As to `CC(C)(C)OC(=O)N[C@H]1CCCCC/C=C\[C@@H]2C[C@@]2(C(=O)NS(=O)(=O)C2CC2)NC(=O)[C@@H]2C[C@@H](OC(=O)N3Cc4cccc(F)c4C3)CN2C1=O` [Danoprevir], the IC50 in experiment [1] (setting [3]) was 25.1 nM. Moreover, the “Activity, Slope trial 1st” value in experiment [1] (inhibitor conc. 1.3717 nM) is 1.677; in experiment [1] (inhibitor conc. 4.1152 nM), 1.449; in experiment [1] (inhibitor conc. 12.3456 nM), 0.991; in experiment [1] (inhibitor conc. 37.037 nM), 0.450; in experiment [1] (inhibitor conc. 111.1111 nM) it was 0.196; in experiment [1] (inhibitor conc. 333.3333 nM) it was 0. Further, in experiment [1] (inhibitor conc. 1000 nM), the “Activity, Slope trial 1st” value was determined as 0. In addition, the “Activity, Slope trial 2nd” value was 2.153 in experiment [1] (inhibitor conc. 1.3717 nM); 1.834 in experiment [1] (inhibitor conc. 4.1152 nM); 0.979 in experiment [1] (inhibitor conc. 12.3456 nM); 0.460 in experiment [1] (inhibitor conc. 37.037 nM); 0.174 in experiment [1] (inhibitor conc. 111.1111 nM); 0.039 in experiment [1] (inhibitor conc. 333.3333 nM). The “Activity, Slope trial 2nd” value in experiment [1] (inhibitor conc. 1000 nM) was 0. For the same compound, the “Activity, Slope trial 3rd” value was found to be 9.123 in experiment [1] (inhibitor conc. 1.3717 nM); 9.072 in experiment [1] (inhibitor conc. 4.1152 nM); 5.934 in experiment [1] (inhibitor conc. 12.3456 nM); 2.283 in experiment [1] (inhibitor conc. 37.037 nM); 0.757 in experiment [1] (inhibitor conc. 111.1111 nM); 0.003151 in experiment [1] (inhibitor conc. 333.3333 nM). Further, the “Activity, Slope trial 3rd” value in experiment [1] (inhibitor conc. 1000 nM) came out at 0. The “Average Slope” value in experiment [1] (inhibitor conc. 1.3717 nM) came out at 4.31; in experiment [1] (inhibitor conc. 4.1152 nM), 4.11; in experiment [1] (inhibitor conc. 12.3456 nM), 2.63; in experiment [1] (inhibitor conc. 37.037 nM) it was 1.06; in experiment [1] (inhibitor conc. 111.1111 nM), 0.37; in experiment [1] (inhibitor conc. 333.3333 nM), 0.01. The “Average Slope” value in experiment [1] (inhibitor conc. 1000 nM) is on record as 0. The “IC50 value [reported in the literature]” value in the experiment on HCV NS3 protease is recorded as 0.0146 µg/mL (≈ 0.0199 µM).

Turning to “depsipeptide substrate Ac-Asp-Glu-Asp-(EDANS)-Glu-Glu-Abu-ψ-[COO]-Ala-Ser-Lys(DABCYL)-NH2”, the Km of cleavage of the depsipeptide substrate by NS3-NS4A (0.5 nM) in the FRET protease assay, Michaelis-Menten fit in experiment [2] stood at 8.79 µM.
